Assay results reported in ChEMBL document CHEMBL1136667, “Inhibitors of Abeta production: solid-phase synthesis and SAR of alpha-hydroxycarbonyl derivatives” (Bioorg Med Chem Lett, 2003).

biological target: Gamma-secretase; experiment: Inhibition of amyloid beta protein production in transfected H4 (neuroglioma) cells expressing […] constructs.; type: functional, cell-based, Homo sapiens

Compared with CC(C)CCC(=O)N[C@@H](CC(C)C)C(=O)N[C@@H](CC1CCCCC1)[C@@H](O)C(=O)c1ccccc1, CC(C)CCC(=O)N[C@@H](CC(C)C)C(=O)N[C@@H](CC1CCCCC1)[C@@H](O)C(=O)Cc1ccccc1 is 15-fold lower in IC50: 4500 nM for the first, 300 nM for the second.

Going from CCOC(=O)[C@H](O)[C@H](CC1CCCCC1)NC(=O)[C@H](CC(C)C)NC(=O)Cc1ccccc1 to CCCC(=O)[C@H](O)[C@H](CC1CCCCC1)NC(=O)[C@H](CC(C)C)NC(=O)Cc1ccccc1, the IC50 falls from 1600 nM to 600 nM (2.7-fold).

Compared with CCOC(=O)[C@H](O)[C@H](CC1CCCCC1)NC(=O)[C@@H](NC(=O)/C=C/c1ccccc1)C(C)C, CCOC(=O)[C@H](O)[C@H](CC1CCCCC1)NC(=O)[C@@H](NC(=O)c1ccccc1)C(C)C is higher in IC50: 5000 nM for the first, > 25000 nM for the second. The first is the more potent here.

First: CCOC(=O)[C@H](O)[C@H](CC1CCCCC1)NC(=O)[C@@H](NC(=O)Cc1ccccc1)C(C)C
Second: CCOC(=O)[C@H](O)[C@H](CC1CCCCC1)NC(=O)[C@H](NC(=O)Cc1ccccc1)C(C)C
The IC50 of the first is lower: 3400 nM for the first, > 25000 nM for the second. The first is the more potent here.

Compared with CC(=O)[C@H](O)[C@H](CC1CCCCC1)NC(=O)[C@H](CC(C)C)NC(=O)Cc1cc(F)cc(F)c1, CCOC(=O)[C@H](O)[C@H](CC1CCCCC1)NC(=O)[C@H](CC(C)C)NC(=O)Cc1cc(F)cc(F)c1 is 2.5-fold higher in IC50: 180 nM for the first, 450 nM for the second. The first is the more potent here.

Going from CCOC(=O)[C@H](O)[C@H](CC1CCCCC1)NC(=O)[C@H](Cc1ccccc1)NC(=O)Cc1ccccc1 to CC(C)C[C@H](NC(=O)Cc1ccccc1)C(=O)N[C@@H](CC1CCCCC1)[C@@H](O)C(=O)Cc1ccccc1, the IC50 falls from 15000 nM to 400 nM (38-fold). The second is the more potent here.

CC(=O)[C@H](O)[C@H](CC1CCCCC1)NC(=O)[C@H](CC(C)C)NC(=O)CCC(C)C and CC(C)CCC(=O)N[C@@H](CC(C)C)C(=O)N[C@@H](CC1CCCCC1)[C@@H](O)C(=O)C(C)C are within 1.5-fold of each other in IC50: 620 nM for the first, 550 nM for the second.

Compared with CC(C)C[C@H](NC(=O)Cc1cc(F)cc(F)c1)C(=O)N[C@@H](CC1CCCCC1)[C@@H](O)C(=O)Cc1ccccc1, CC(C)C[C@H](NC(=O)Cc1cccc(F)c1)C(=O)N[C@@H](CC1CCCCC1)[C@@H](O)C(=O)Cc1ccccc1 is 2.5-fold higher in IC50: 160 nM for the first, 400 nM for the second. The first is the more potent here.

First: CCOC(=O)[C@H](O)[C@H](CC1CCCCC1)NC(=O)[C@@H](NC(=O)Cc1ccccc1F)C(C)C
Second: CCOC(=O)[C@H](O)[C@H](CC1CCCCC1)NC(=O)[C@@H](NC(=O)C(=O)c1ccccc1)C(C)C
The IC50 of the first is 5.2-fold higher: 17000 nM for the first, 3300 nM for the second. The second is the more potent here.

First: CCCC(=O)[C@H](O)[C@H](CC1CCCCC1)NC(=O)[C@H](CC(C)C)NC(=O)CCC(C)C
Second: CCOC(=O)[C@H](O)[C@H](CC1CCCCC1)NC(=O)[C@H](CC(C)C)NC(=O)CCC(C)C
The IC50 of the first is 2.6-fold lower: 580 nM for the first, 1500 nM for the second. The first is the more potent here.

Compared with CC(=O)[C@H](O)[C@H](CC1CCCCC1)NC(=O)[C@H](CC(C)C)NC(=O)Cc1ccccc1, CC(C)C[C@H](NC(=O)Cc1ccccc1)C(=O)N[C@@H](CC1CCCCC1)[C@@H](O)C(=O)O is 17-fold higher in IC50: 900 nM for the first, 15000 nM for the second.

Compared with CCOC(=O)[C@H](O)[C@H](CC1CCCCC1)NC(=O)[C@H](CC(C)C)NC(=O)Cc1ccc(F)cc1, CCOC(=O)[C@H](O)[C@H](CC1CCCCC1)NC(=O)[C@H](CC(C)C)NC(=O)Cc1cccc(F)c1 is 2-fold lower in IC50: 1800 nM for the first, 920 nM for the second. The second is the more potent here.

Going from CC(C)C[C@H](NC(=O)Cc1ccccc1)C(=O)N[C@@H](CC1CCCCC1)[C@@H](O)C(=O)c1ccccc1 to CCOC(=O)[C@H](O)[C@H](CC1CCCCC1)NC(=O)[C@@H](NC(=O)C1(c2ccccc2)CC1)C(C)C, the IC50 rises from 900 nM to > 25000 nM.
